Data: patent publication US5989326A, “Dyes for ink jet printing” (Ilford Imaging Switzerland GmbH, priority 1997, dated 1999)
Values joined by “and” are separate entries in the source; they are usually repeats but may differ in a detail not shown here. Identical values can stand only once.

Assays:
[1] = Absorption maximum in water; type: physicochemical
Text: The absorption maxima and the results of the tests (B) to (D) are reported in Table 6 for the dyes of the invention and the comparative values for previously known disazo dyes in Table 7.

[2] = Dye solubility in deionised water; type: physicochemical; details: for Solubility: deionised water, stirred 1 hour at 50° C., cooled to 20° C.; for Solubility, comparison in words: versus previously known black disazo dyes 12 and 14
Procedure: The dye was dispersed or solubilised in deionised water and the dispersion or solution was stirred for one hour at 50° C. Then the mixture was cooled down to 20° C., centrifuged and filtered. The solubility of the dye was calculated a) from UV/VIS spectral data of the mother liquor (solution) or b) based on the dried filter residue.

| SMILES | HD max in water [1] | Solubility [2] [g per 100 ml] | Solubility, comparison in words [2] |
| --- | --- | --- | --- |
| COc1cc(N=Nc2cccc(S(=O)(=O)O)c2)c(C)cc1N=Nc1c(S(=O)(=O)O)cc2ccc(NCCS(=O)(=O)O)cc2c1O [Compound 1] | 569 nm |  |  |
| Cc1cc(N=Nc2c(S(=O)(=O)O)cc3ccc(NCCS(=O)(=O)O)cc3c2O)c(OCCO)cc1N=Nc1cccc(S(=O)(=O)O)c1 [Compound 2] |  | > 20 | much higher solubility |
| COc1cc(N=Nc2cc(S(=O)(=O)O)c3cccc(S(=O)(=O)O)c3c2)c(C)cc1N=Nc1c(S(=O)(=O)O)cc2ccc(NCCS(=O)(=O)O)cc2c1O [Compound 4] | 584 nm | > 20 | much higher solubility |
| Cc1cc(N=Nc2c(S(=O)(=O)O)cc3ccc(NCCS(=O)(=O)O)cc3c2O)c(OCCO)cc1N=Nc1cc(S(=O)(=O)O)c2cccc(S(=O)(=O)O)c2c1 [Compound 5] | 583 nm |  |  |
| COc1cc(N=Nc2ccc3c(S(=O)(=O)O)cc(S(=O)(=O)O)cc3c2)c(C)cc1N=Nc1c(S(=O)(=O)O)cc2ccc(NCCS(=O)(=O)O)cc2c1O [Compound 6] | 575 nm | > 20 | much higher solubility |
| COc1cc(N=Nc2c(S(=O)(=O)O)cc3ccc(NCCS(=O)(=O)O)cc3c2O)c(OC)cc1N=Nc1cc(S(=O)(=O)O)c2cccc(S(=O)(=O)O)c2c1 [Compound 7] | 595 nm and 491 nm |  |  |
| Cc1cc(N=Nc2c(S(=O)(=O)O)cc3ccc(Nc4cccc(S(=O)(=O)O)c4)cc3c2O)ccc1N=Nc1cc(S(=O)(=O)O)c2cccc(S(=O)(=O)O)c2c1 [Compound 10, reference compound] | 559 nm |  |  |
| COc1cc(N=Nc2cccc(C(=O)O)c2)c(NC(C)=O)cc1N=Nc1c(S(=O)(=O)O)cc2ccc(N)cc2c1O [Compound 11, reference compound] | 557 nm |  |  |
| COc1cc(N=Nc2cccc(C(=O)O)c2)c(NC(C)=O)cc1N=Nc1c(S(=O)(=O)O)cc2ccc(Nc3ccc(C(=O)O)cc3)cc2c1O [Compound 12, reference compound] | 498 nm | 3.6 |  |
| COc1cc(N=Nc2cccc(C(=O)O)c2)c(NC(C)=O)cc1N=Nc1c(S(=O)(=O)O)cc2ccc(NCCC(=O)O)cc2c1O [Compound 13, reference compound] | 488 nm |  |  |
| COc1cc(N=Nc2c(S(=O)(=O)O)cc3ccc(Nc4ccc(C(=O)O)cc4)cc3c2O)c(OC)cc1N=Nc1ccc(C(=O)O)cc1 [Compound 14, reference compound] | 584 nm | 17 |  |
| COc1cc(N=Nc2cccc(C(=O)O)c2)c(C)cc1N=Nc1c(S(=O)(=O)O)cc2ccc(N)cc2c1O [Compound 15, reference compound] | 557 nm |  |  |
